The assay has as its system MV-4-11 cells. The assay is described as follows: Gene expression microarray analysis (Affymetrix PrimeView) and GSEA. Type of assay: cell-based, human. The arrangement: RFU PODN (11730768_x_at) / Fold change /veh PODN (11730768_x_at) / RFU LINC00158 (11744669_a_at) / Fold change /veh LINC00158 (11744669_a_at) / RFU DUSP10 (11751237_a_at) / Fold change /veh DUSP10 (11751237_a_at) / RFU ID3 (11757404_x_at) / Fold change /veh ID3 (11757404_x_at) / RFU PLEKHG5 (11737974_s_at) / Fold change /veh PLEKHG5 (11737974_s_at) / RFU LRRC4B (11730491_at) / Fold change /veh LRRC4B (11730491_at) / RFU GIMAP4 (11747438_a_at) / Fold change /veh GIMAP4 (11747438_a_at) / RFU KRT8 (11758183_x_at) / Fold change /veh KRT8 (11758183_x_at) / RFU CNN1 (11734310_a_at) / Fold change /veh CNN1 (11734310_a_at) / RFU VPS37D (11726825_at) / Fold change /veh VPS37D (11726825_at) / RFU C10orf10 (11716522_x_at) / Fold change /veh C10orf10 (11716522_x_at) / RFU KIR2DL2 /// KIR2DL4 /// KIR2DL5A /// KIR2DL5B /// KIR2DS1 /// KIR2DS2 /// KIR2DS3 /// KIR2DS4 /// KIR3DL3 /// KIR3DL3 /// KIR3DS1 (11738374_at) / Fold change /veh KIR2DL2 /// KIR2DL4 /// KIR2DL5A /// KIR2DL5B /// KIR2DS1 /// KIR2DS2 /// KIR2DS3 /// KIR2DS4 /// KIR3DL3 /// KIR3DL3 /// KIR3DS1 (11738374_at) / RFU C1QL1 (11718748_at) / Fold change /veh C1QL1 (11718748_at) / RFU TMPRSS4 (11747572_a_at) / Fold change /veh TMPRSS4 (11747572_a_at) / RFU HAMP (11756126_x_at) / Fold change /veh HAMP (11756126_x_at) / RFU RNFT2 (11725882_a_at) / Fold change /veh RNFT2 (11725882_a_at) / RFU NR4A2 (11747474_a_at) / Fold change /veh NR4A2 (11747474_a_at) / RFU ABCC12 (11746883_a_at) / Fold change /veh ABCC12 (11746883_a_at) / RFU TMEM136 (11760407_x_at) / Fold change /veh TMEM136 (11760407_x_at) / RFU CLDN22 /// WWC2 (11732394_at) / Fold change /veh CLDN22 /// WWC2 (11732394_at) / RFU HLA-DPB1 (11760878_x_at) / Fold change /veh HLA-DPB1 (11760878_x_at) / RFU SPINT1 (11716480_a_at) / Fold change /veh SPINT1 (11716480_a_at) / RFU GAP43 (11754022_s_at) / Fold change /veh GAP43 (11754022_s_at) / RFU A4GNT (11735810_at) / Fold change /veh A4GNT (11735810_at) / RFU PRB3 (11715151_x_at) / Fold change /veh PRB3 (11715151_x_at) / RFU TUBB4B (11761932_at) / Fold change /veh TUBB4B (11761932_at) / RFU CAPN14 (11732068_a_at) / Fold change /veh CAPN14 (11732068_a_at) / RFU TMCC2 (11721928_a_at) / Fold change /veh TMCC2 (11721928_a_at) / RFU IRGQ (11745062_a_at) / Fold change /veh IRGQ (11745062_a_at) / RFU FAM174B (11720279_a_at) / Fold change /veh FAM174B (11720279_a_at) / RFU TMPRSS4 (11748680_a_at) / Fold change /veh TMPRSS4 (11748680_a_at) / RFU FAM212B (11763350_a_at) / Fold change /veh FAM212B (11763350_a_at) / RFU PLEKHG5 (11743358_a_at) / Fold change /veh PLEKHG5 (11743358_a_at) / RFU ZSCAN30 (11745921_a_at) / Fold change /veh ZSCAN30 (11745921_a_at) / RFU CMKLR1 (11741424_a_at) / Fold change /veh CMKLR1 (11741424_a_at) / RFU LOC101060620 /// MAPK8IP1 (11723275_at) / Fold change /veh LOC101060620 /// MAPK8IP1 (11723275_at) / RFU SPTSSB (11747773_x_at) / Fold change /veh SPTSSB (11747773_x_at) / RFU PRSS12 (11739890_at) / Fold change /veh PRSS12 (11739890_at) / RFU BIN1 (11741810_x_at) / Fold change /veh BIN1 (11741810_x_at) / RFU WNT11 (11732464_a_at) / Fold change /veh WNT11 (11732464_a_at) / RFU C10orf10 (11716521_a_at) / Fold change /veh C10orf10 (11716521_a_at) / RFU C5orf56 (11738089_at) / Fold change /veh C5orf56 (11738089_at) / RFU CYB561 (11721691_x_at) / Fold change /veh CYB561 (11721691_x_at) / RFU ANKRD19P (11752326_a_at) / Fold change /veh ANKRD19P (11752326_a_at) / RFU OR2T12 /// OR2T33 /// OR2T8 (11738714_s_at) / Fold change /veh OR2T12 /// OR2T33 /// OR2T8 (11738714_s_at) / RFU VCAN (11748164_a_at) / Fold change /veh VCAN (11748164_a_at) / RFU JSRP1 (11732532_at) / Fold change /veh JSRP1 (11732532_at) / RFU KRTAP10-11 (11738290_x_at) / Fold change /veh KRTAP10-11 (11738290_x_at) / RFU MYO3A (11730013_a_at) / Fold change /veh MYO3A (11730013_a_at) / RFU EBF3 (11725865_a_at) / Fold change /veh EBF3 (11725865_a_at) / RFU CAMK2N1 (11719241_x_at) / Fold change /veh CAMK2N1 (11719241_x_at) / RFU C5orf56 (11738088_a_at) / Fold change /veh C5orf56 (11738088_a_at) / RFU OLFML3 (11715873_a_at) / Fold change /veh OLFML3 (11715873_a_at) / RFU LOC100653217 /// NTM (11731650_a_at) / Fold change /veh LOC100653217 /// NTM (11731650_a_at) / RFU MAPK11 (11762145_a_at) / Fold change /veh MAPK11 (11762145_a_at) / RFU FIZ1 (11724087_x_at) / Fold change /veh FIZ1 (11724087_x_at) / RFU OASL (11726364_x_at) / Fold change /veh OASL (11726364_x_at) / RFU SOX15 (11748057_x_at) / Fold change /veh SOX15 (11748057_x_at) / RFU CD79A (11719716_a_at) / Fold change /veh CD79A (11719716_a_at) / RFU HIST1H1D (11736915_at) / Fold change /veh HIST1H1D (11736915_at) / RFU CASKIN2 (11723855_a_at) / Fold change /veh CASKIN2 (11723855_a_at) / RFU LOC730098 (11760151_x_at) / Fold change /veh LOC730098 (11760151_x_at) / RFU OR4N2 (11742367_at) / Fold change /veh OR4N2 (11742367_at) / RFU PRRT2 (11749266_a_at) / Fold change /veh PRRT2 (11749266_a_at) / RFU SNX32 (11753110_a_at) / Fold change /veh SNX32 (11753110_a_at) / RFU CDHR5 (11726645_a_at) / Fold change /veh CDHR5 (11726645_a_at) / RFU RCAN1 (11760418_a_at) / Fold change /veh RCAN1 (11760418_a_at) / RFU FAM167A (11723789_a_at) / Fold change /veh FAM167A (11723789_a_at) / RFU FAM26E (11764081_at) / Fold change /veh FAM26E (11764081_at) / RFU ISYNA1 (11749810_s_at) / Fold change /veh ISYNA1 (11749810_s_at) / RFU ACY1 (11761880_at) / Fold change /veh ACY1 (11761880_at) / RFU 11764098_at / Fold change /veh 11764098_at / RFU SAMD14 (11745864_x_at) / Fold change /veh SAMD14 (11745864_x_at) / RFU NPB (11741838_a_at) / Fold change /veh NPB (11741838_a_at) / RFU TMPRSS6 (11731388_a_at) / Fold change /veh TMPRSS6 (11731388_a_at) / RFU KRTAP10-2 (11738614_at) / Fold change /veh KRTAP10-2 (11738614_at) / RFU ARHGAP8 /// PRR5-ARHGAP8 (11727945_x_at) / Fold change /veh ARHGAP8 /// PRR5-ARHGAP8 (11727945_x_at) / RFU KRTAP5-7 /// NADSYN1 (11734609_at) / Fold change /veh KRTAP5-7 /// NADSYN1 (11734609_at) / RFU RASL12 (11751679_a_at) / Fold change /veh RASL12 (11751679_a_at) / RFU CDKN2B (11736163_a_at) / Fold change /veh CDKN2B (11736163_a_at) / RFU PRF1 (11729649_at) / Fold change /veh PRF1 (11729649_at) / RFU, ZNF638 /// ZNF638-IT1 / Fold change vs veh, ZNF638 /// ZNF638-IT1 / RFU, PANK3 / Fold change vs veh, PANK3 / RFU, SH3YL1 / Fold change vs veh, SH3YL1 / RFU, ZEB2 / Fold change vs veh, ZEB2 / RFU, NRIP1 / Fold change vs veh, NRIP1 / RFU, PTTG1IP / Fold change vs veh, PTTG1IP / RFU, CAPN2 / Fold change vs veh, CAPN2 / RFU, MED14 / Fold change vs veh, MED14 / RFU, SNORA58 / Fold change vs veh, SNORA58 / RFU, C1orf63 / Fold change vs veh, C1orf63 / RFU, LRRFIP1 / Fold change vs veh, LRRFIP1 / RFU, NDUFAF7 / Fold change vs veh, NDUFAF7 / RFU, SLC12A2 / Fold change vs veh, SLC12A2 / RFU, IBTK / Fold change vs veh, IBTK / RFU, ESF1 / Fold change vs veh, ESF1 / Fold change vs veh, TMEM50B / RFU, TAOK1 / Fold change vs veh, TAOK1 / RFU, ACBD3 / Fold change vs veh, ACBD3 / RFU, TMA16 / Fold change vs veh, TMA16 / RFU, RWDD3 / Fold change vs veh, RWDD3 / RFU, BCAT1 / Fold change vs veh, BCAT1 / RFU, EDEM3 / Fold change vs veh, EDEM3 / RFU, TMEM33 / Fold change vs veh, TMEM33 / RFU, WDR75 / Fold change vs veh, WDR75 / RFU, AHCTF1 / Fold change vs veh, AHCTF1 / RFU, TFRC / Fold change vs veh, TFRC / RFU, ZDHHC17 / Fold change vs veh, ZDHHC17 / RFU, NOM1 / Fold change vs veh, NOM1 / RFU, ARL8B / Fold change vs veh, ARL8B / RFU, ZBTB11 / Fold change vs veh, ZBTB11 / RFU, TAMM41 / Fold change vs veh, TAMM41 / RFU, KIAA1704 /// LOC100996395 / Fold change vs veh, KIAA1704 /// LOC100996395 / RFU, ING1 / Fold change vs veh, ING1 / RFU, TRMT61B / Fold change vs veh, TRMT61B / RFU, FUBP3 / Fold change vs veh, FUBP3 / RFU, TP53 / Fold change vs veh, TP53 / RFU, TNKS2 / Fold change vs veh, TNKS2 / RFU, ZFP14 / Fold change vs veh, ZFP14 / RFU, ACTR2 / Fold change vs veh, ACTR2 / RFU, PPP3R1 / Fold change vs veh, PPP3R1 / RFU, PIK3R1 / Fold change vs veh, PIK3R1 / RFU, HNRNPA1 / Fold change vs veh, HNRNPA1 / RFU, RNF170 / Fold change vs veh, RNF170 / RFU, ZNF28 / Fold change vs veh, ZNF28 / RFU, RNGTT / Fold change vs veh, RNGTT / RFU, OGT / Fold change vs veh, OGT / RFU, BRD1 / Fold change vs veh, BRD1 / RFU, MARS / Fold change vs veh, MARS / RFU, ZNF655 / Fold change vs veh, ZNF655 / RFU, FAHD1 / Fold change vs veh, FAHD1 / RFU, BDP1 / Fold change vs veh, BDP1 / RFU, LRRCC1 / Fold change vs veh, LRRCC1 / RFU, ARID1A / Fold change vs veh, ARID1A / RFU, ZNF146 / Fold change vs veh, ZNF146 / RFU, ZNF330 / Fold change vs veh, ZNF330 / RFU, GPN3 / Fold change vs veh, GPN3 / RFU, C9orf123 / Fold change vs veh, C9orf123 / RFU, N4BP2L2 / Fold change vs veh, N4BP2L2 / RFU, ARFIP1 / Fold change vs veh, ARFIP1 / RFU, FAM179B / Fold change vs veh, FAM179B / RFU, BCL10 / Fold change vs veh, BCL10 / RFU, UHRF1BP1L / Fold change vs veh, UHRF1BP1L / RFU, BET1 / Fold change vs veh, BET1 / RFU, CNOT2 / Fold change vs veh, CNOT2 / RFU, ZNF268 / Fold change vs veh, ZNF268 / Fold change vs veh, ZNF507 / RFU, DGCR2 / Fold change vs veh, DGCR2 / RFU, WDSUB1 / Fold change vs veh, WDSUB1 / Fold change vs veh, HSP90B1 /// MIR3652 / RFU, ADSS / Fold change vs veh, ADSS / RFU, GK / Fold change vs veh, GK / RFU, ZNF148 / Fold change vs veh, ZNF148 / RFU, TAF9 / Fold change vs veh, TAF9 / RFU, SLC1A5 / Fold change vs veh, SLC1A5 / RFU, SLMO2 / Fold change vs veh, SLMO2 / RFU, ABCC4 / Fold change vs veh, ABCC4 / RFU, LOC101060439 /// RAP1B / Fold change vs veh, LOC101060439 /// RAP1B / RFU, RFX7 / Fold change vs veh, RFX7 / RFU, GTPBP10 / Fold change vs veh, GTPBP10 / RFU, CNEP1R1 / Fold change vs veh, CNEP1R1 / RFU, BIVM-ERCC5 /// ERCC5 / Fold change vs veh, BIVM-ERCC5 /// ERCC5 / RFU, ILF3 / Fold change vs veh, ILF3 / RFU 11762660_at / Fold change /veh 11762660_at / RFU VCAN (11757783_s_at) / Fold change /veh VCAN (11757783_s_at) / RFU DDX43 (11728927_at) / Fold change /veh DDX43 (11728927_at) / RFU KRT8 (11758188_x_at) / Fold change /veh KRT8 (11758188_x_at) / RFU NKD1 (11759106_at) / Fold change /veh NKD1 (11759106_at) / RFU SRD5A1 (11742802_a_at) / Fold change /veh SRD5A1 (11742802_a_at) / RFU TPSAB1 /// TPSB2 (11721975_s_at) / Fold change /veh TPSAB1 /// TPSB2 (11721975_s_at) / RFU GSTM3 (11746129_a_at) / Fold change /veh GSTM3 (11746129_a_at) / RFU IL23R (11737362_x_at) / Fold change /veh IL23R (11737362_x_at) / RFU TMEM51 (11727254_a_at) / Fold change /veh TMEM51 (11727254_a_at) / RFU PIWIL2 (11732686_x_at) / Fold change /veh PIWIL2 (11732686_x_at) / RFU ORM1 (11744905_x_at) / Fold change /veh ORM1 (11744905_x_at) / RFU CCDC152 (11743942_at) / Fold change /veh CCDC152 (11743942_at) / RFU ECM1 (11717891_a_at) / Fold change /veh ECM1 (11717891_a_at) / RFU IL23R (11748794_a_at) / Fold change /veh IL23R (11748794_a_at) / RFU TNFAIP8L3 (11732012_x_at) / Fold change /veh TNFAIP8L3 (11732012_x_at) / RFU MBOAT4 (11741988_at) / Fold change /veh MBOAT4 (11741988_at) / RFU 11764193_at / Fold change /veh 11764193_at / RFU TMEM53 (11763286_at) / Fold change /veh TMEM53 (11763286_at) / RFU MAGEB2 (11727129_at) / Fold change /veh MAGEB2 (11727129_at) / RFU TMEM200A (11744735_a_at) / Fold change /veh TMEM200A (11744735_a_at) / RFU CCDC152 (11751479_a_at) / Fold change /veh CCDC152 (11751479_a_at) / RFU FAM211A (11726209_a_at) / Fold change /veh FAM211A (11726209_a_at) / RFU RGS16 (11746705_a_at) / Fold change /veh RGS16 (11746705_a_at) / RFU VCAN (11755009_s_at) / Fold change /veh VCAN (11755009_s_at) / RFU RHOB (11743442_s_at) / Fold change /veh RHOB (11743442_s_at) / RFU RGS16 (11720943_a_at) / Fold change /veh RGS16 (11720943_a_at) / RFU RGS16 (11720944_at) / Fold change /veh RGS16 (11720944_at) / RFU, VPS4B / Fold change vs veh, VPS4B / RFU, CREB1 / Fold change vs veh, CREB1 / RFU, DNAJC13 / Fold change vs veh, DNAJC13 / RFU, GNAQ / Fold change vs veh, GNAQ / RFU, CDK5R1 / Fold change vs veh, CDK5R1 / RFU, ZRANB3 / Fold change vs veh, ZRANB3 / RFU, CUL4A / Fold change vs veh, CUL4A / RFU, CCNY / Fold change vs veh, CCNY / RFU, UFL1 / Fold change vs veh, UFL1 / RFU, COG3 / Fold change vs veh, COG3 / RFU, DIAPH2 / Fold change vs veh, DIAPH2 / RFU, SKA2 / Fold change vs veh, SKA2 / RFU, AFF3 / Fold change vs veh, AFF3 / RFU, LMF1 / Fold change vs veh, LMF1 / RFU, IPO11 / Fold change vs veh, IPO11 / RFU, DFFB / Fold change vs veh, DFFB / RFU, FOXP1 / Fold change vs veh, FOXP1 / RFU, CARD8 / Fold change vs veh, CARD8 / RFU, STRN3 / Fold change vs veh, STRN3 / RFU, ADK / Fold change vs veh, ADK / RFU, RASSF2 / Fold change vs veh, RASSF2 / RFU, WIPF1 / Fold change vs veh, WIPF1 / RFU, LARP1B / Fold change vs veh, LARP1B / RFU, RASA1 / Fold change vs veh, RASA1 / RFU, RB1 / Fold change vs veh, RB1 / RFU, PPFIA1 / Fold change vs veh, PPFIA1 / RFU, MAT2A / Fold change vs veh, MAT2A / RFU, CCT5 / Fold change vs veh, CCT5 / RFU, WDR92 / Fold change vs veh, WDR92 / RFU, CUX1 / Fold change vs veh, CUX1 / RFU, TTC7A / Fold change vs veh, TTC7A / RFU, TMEM135 / Fold change vs veh, TMEM135 / RFU, DEPTOR / Fold change vs veh, DEPTOR / RFU, CPM / Fold change vs veh, CPM / RFU, DNAJB6 / Fold change vs veh, DNAJB6 / RFU, CACNA2D3 / Fold change vs veh, CACNA2D3 / RFU, DTX4 / Fold change vs veh, DTX4 / RFU, TFCP2 / Fold change vs veh, TFCP2 / RFU, GMCL1 /// GMCL1P1 / Fold change vs veh, GMCL1 /// GMCL1P1 / RFU, AEBP2 / Fold change vs veh, AEBP2 / RFU, SNHG1 /// SNORD22 /// SNORD25 /// SNORD26 /// SNORD27 /// SNORD28 /// SNORD29 /// SNORD31 / Fold change vs veh, SNHG1 /// SNORD22 /// SNORD25 /// SNORD26 /// SNORD27 /// SNORD28 /// SNORD29 /// SNORD31 / Fold change (Aza/veh), C12orf56 (ProbeSet 11735607_a_at) / Fold change (ACY-1035/veh), C12orf56 (ProbeSet 11735607_a_at) / Fold change (Aza/veh), FGFR1OP (ProbeSet 11751329_s_at) / Fold change (ACY-1035/veh), FGFR1OP (ProbeSet 11751329_s_at) / Fold change (Aza/veh), VPS36 (ProbeSet 11739960_a_at) / Fold change (ACY-1035/veh), VPS36 (ProbeSet 11739960_a_at) / RFU SYPL1 (11715823_x_at) / Fold change /veh SYPL1 (11715823_x_at) / RFU IGFBP7 (11715501_s_at) / Fold change /veh IGFBP7 (11715501_s_at) / RFU REEP3 (11722064_at) / Fold change /veh REEP3 (11722064_at) / RFU IGLL1 (11728026_x_at) / Fold change /veh IGLL1 (11728026_x_at): dose or concentration left out as unconfirmed. The note with it: ProbeSet 11720269_a_at; LIST B.

From publication PMC5218480 (PLoS ONE, 2017) come the findings set out here.

Structures are written as SMILES.

With `Nc1ncn([C@@H]2O[C@H](CO)[C@@H](O)[C@H]2O)c(=O)n1` [azacitidine], the “RFU, IBTK” value came out at 763.53 RFU.
